Read-outs that look alike come from different tables or passages of the source.
Assays:
[1] = biological target: HCV NS5B (Hepatitis C virus genotype 1b (isolate Con1) (HCV), UniProt Q9WMX2); experiment: HCV NS5B RdRp enzyme assay; assay type: biochemical, HCV genotype 1b (Con1)
Experimental: Each untagged protein was expressed with an 18 amino acid C-terminal truncation to enhance the solubility. The E. coli competent cell line BL21(DE3) was used for expression of the protein. […] The cultures were cooled to 20° C. and induced with 1 mM IPTG. Fresh ampicillin was added to a final concentration of 50 μg/mL and the cells were grown overnight at 20° C.
The lysis buffer consisted of 20 mM Tris-HCl, pH 7.4, 500 mM NaCl, 0.5% triton X-100, 1 mM DTT, 1 mM EDTA, 20% glycerol, 0.5 mg/mL lysozyme, 10 mM MgCl2, 15 ug/mL deoxyribonuclease I, and Complete TM protease inhibitor tablets (Roche). After addition of the lysis buffer, frozen cell pellets were resuspended using a tissue homogenizer. To reduce the viscosity of the sample, aliquots of the lysate were sonicated on ice using a microtip attached to a Branson sonicator. The sonicated lysate was centrifuged at 100,000×g for 30 minutes at 4° C. and filtered through a 0.2 μm filter unit (Corning).
The protein was purified using two sequential chromatography steps: Heparin sepharose CL-6B and polyU sepharose 4B. The chromatography buffers were identical to the lysis buffer but contained no lysozyme, deoxyribonuclease I, MgCl2 or protease inhibitor and the NaCl concentration of the buffer was adjusted according to the requirements for charging the protein onto the column. Each column was eluted with a NaCl gradient which varied in length from 5-50 column volumes depending on the column type. […] The enzyme was aliquoted and stored at −80° C.
An on-bead solid phase homogeneous assay was used in a 384-well format to assess NS5B inhibitors (WangY-K, Rigat K, Roberts S, and Gao M (2006) Anal Biochem, 359: 106-111). The biotinylated oligo dT12 primer was captured on streptavidin-coupled imaging beads (GE, RPNQ0261) by mixing primer and beads in 1× buffer and incubating at room temperature for three hours. Unbound primer was removed after centrifugation. The primer-bound beads were resuspended in 3× reaction mix (20 mM Hepes buffer, pH 7.5, dT primer coupled beads, poly A template, ^3H-UTP, and RNAse inhibitor (Promega N2515)). Compounds were serially diluted 1:3 in DMSO and aliquoted into assay plates. […]
Reactions were allowed to proceed for 24 hours at 30° C. and terminated by the addition of 50 mM EDTA (5 μL). After incubating for at least 15 minutes, plates were read on an Amersham LEADseeker multimodality imaging system.
IC50 values for compounds were determined using ten different [I]. IC50 values were calculated from the inhibition using the four-parameter logistic formula y=A+((B−A)/(1+((C/x)^D))), where A and B denote minimal and maximal % inhibition, respectively, C is the IC50, D is hill slope and x represents compound concentration.

[2] = test system: genotype 1b (Con-1) HCV replicon; experiment: HCV replicon luciferase assay; assay type: cell-based; details: Hepatitis C virus, Huh-7, 72 h, 1b replicon, Huh-7 cells, Renilla luciferase, 3 days incubation
Experimental: The cell lines used to evaluate compounds consist of a human hepatocyte derived cell line (Huh-7) that constitutively expresses a genotype 1b (Con-1) HCV replicon or a genotype 1b (Con-1) HCV replicon with an asparagine replacing the cysteine at amino acid 316, or a genotype 2a (JFH-1) replicon, containing a Renilla luciferase reporter gene. These cells were maintained in Dulbecco's modified Eagle medium (DMEM) containing 10% FBS, 100 U/mL penicillin/streptomycin and 1.0 mg/mL G418.
After 3 days incubation at 37° C., cells were analyzed for Renilla Luciferase activity using the EnduRen substrate (Promega cat #E6485) according to the manufacturer's directions. Briefly, the EnduRen substrate was diluted in DMEM and then added to the plates to a final concentration of 7.5 μM. The plates were incubated for at least 1 h at 37° C. then read on a Viewlux Imager (PerkinElmer) using a luminescence program.

[3] = extended dosing, combination with interferon and ribavirin; cited from earlier work
[4] = test system: HCV; details: cited from earlier work
[5] = 1b enzyme, 7 nM NS5B, 24 hours at 30° C., read-out: IC50

HCV NS5B, sequence (Q9WMX2 2420-2992): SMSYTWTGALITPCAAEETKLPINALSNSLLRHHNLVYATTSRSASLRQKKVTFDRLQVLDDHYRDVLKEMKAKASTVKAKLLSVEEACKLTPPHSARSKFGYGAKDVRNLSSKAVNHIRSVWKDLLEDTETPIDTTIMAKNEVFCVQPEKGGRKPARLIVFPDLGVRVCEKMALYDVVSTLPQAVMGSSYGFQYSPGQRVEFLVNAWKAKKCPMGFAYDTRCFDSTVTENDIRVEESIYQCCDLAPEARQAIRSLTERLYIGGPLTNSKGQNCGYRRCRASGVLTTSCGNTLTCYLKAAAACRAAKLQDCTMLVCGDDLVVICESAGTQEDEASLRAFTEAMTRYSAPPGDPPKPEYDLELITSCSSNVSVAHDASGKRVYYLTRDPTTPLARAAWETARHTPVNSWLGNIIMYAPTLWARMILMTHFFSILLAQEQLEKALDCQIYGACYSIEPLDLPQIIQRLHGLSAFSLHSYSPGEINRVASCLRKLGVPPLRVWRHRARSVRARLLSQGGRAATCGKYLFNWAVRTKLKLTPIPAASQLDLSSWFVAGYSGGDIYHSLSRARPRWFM

Row | Molecule | IC50 [1, 5] | EC50 [2] | other results
1 | CNC(=O)c1c(-c2ccc(F)cc2)oc2nc(CCC(F)(F)F)c(-c3cccc(C(=O)NC4(c5ncon5)CCC4)c3)cc12 [Example 4, 5-(3-((1-(1,2,4-oxadiazol-3-yl)cyclobutyl)carbamoyl)phenyl)-2-(4-fluorophenyl)-N-methyl-6-(3,3,3-trifluoropropyl)furo[2,3-b]pyridine-3-carboxamide] | 2.05 nM | 2.41 nM | –
2 | CNC(=O)c1c(-c2ccc(F)cc2)oc2nc(CCC(F)(F)F)c(-c3cccc(C(=O)NC(C)(C)c4nc(C)no4)c3)cc12 [Example 9, 2-(4-fluorophenyl)-N-methyl-5-(3-((2-(3-methyl-1,2,4-oxadiazol-5-yl)propan-2-yl)carbamoyl)phenyl)-6-(3,3,3-trifluoropropyl)furo[2,3-b]pyridine-3-carboxamide] | 2.87 nM | 2.11 nM | –
3 | CNC(=O)c1c(-c2ccc(F)cc2)oc2nc(NCC(F)(F)F)c(-c3ccc(F)c(C(=O)NC(C)(C)c4ncon4)c3)cc12 [Example 13, 5-(3-((2-(1,2,4-oxadiazol-3-yl)propan-2-yl)carbamoyl)-4-fluorophenyl)-2-(4-fluorophenyl)-N-methyl-6-((2,2,2-trifluoroethyl)amino)furo[2,3-b]pyridine-3-carboxamide] | 3.42 nM | 5.76 nM | –
4 | [2H]C([2H])([2H])Oc1ncc(-c2cc3c(C(=O)NC)c(-c4ccc(F)cc4)oc3nc2CCC(F)(F)F)cc1C(=O)NC(c1ncon1)(C([2H])([2H])[2H])C([2H])([2H])[2H] [Example 17, 5-[2-(4-fluorophenyl)-3-(methylcarbamoyl)-6-(3,3,3-trifluoropropyl)furo[2,3-b]pyridin-5-yl]-2-(^2H3)methoxy-N-[2-(1,2,4-oxadiazol-3-yl)(^2H6)propan-2-yl]pyridine-3-carboxamide] | – | – | IC50 [1]: 2.4 nM
5 | CNC(=O)c1c(-c2ccc(F)cc2)oc2nc(NCC(F)(F)F)c(-c3cnc(OC)c(C(=O)NC(C)(C)c4ncon4)c3)cc12 [Example 29, 5-[2-(4-fluorophenyl)-3-(methylcarbamoyl)-6-[(2,2,2-trifluoroethyl)amino]furo[2,3-b]pyridin-5-yl]-2-methoxy-N-[2-(1,2,4-oxadiazol-3-yl)propan-2-yl]pyridine-3-carboxamide] | – | 8.01 nM | –
6 | [2H]C([2H])([2H])Oc1ncc(-c2cc3c(C(=O)NC)c(-c4ccc(F)cc4)oc3nc2CCC(F)(F)F)cc1C(=O)NC(C)(c1ncon1)C1CC1 (stereo not drawn) [Example 30, N-[1-cyclopropyl-1-(1,2,4-oxadiazol-3-yl)ethyl]-5-[2-(4-fluorophenyl)-3-(methylcarbamoyl)-6-(3,3,3-trifluoropropyl)furo[2,3-b]pyridin-5-yl]-2-(^2H3)methoxypyridine-3-carboxamide] | – | 4.35 nM | –
7 | CNC(=O)c1c(-c2ccc(F)cc2)oc2cc(N(CCO)S(C)(=O)=O)c(C3CC3)cc12 [HCV-796] | – | – | hepatic toxicity [3]: hepatic toxicity observed during extended dosing of the combination regimens; HCV RNA levels in patients ([4]; single agent, transient decrease then rebound during dosing): reduce HCV RNA levels in patients
8 | alpha-interferon and ribavirin | – | – | sustained efficacy ([4]; combination therapy): 40 % of patients
